# Test results published in patent US10759797B2, “Pharmaceutically acceptable salt of EGFR inhibitor, crystal form thereof, preparation method therefor and application thereof” (Wuxi Shuangliang Biotechnology Co., Ltd., priority 2017, dated 2020).
# Counter-ions that a name gives are not always drawn.
# Experiments:
# Format in all cases: physicochemical
# [1] = Hygroscopicity study of crystal forms (Chinese Pharmacopoeia 2015, part 4, appendix 9103); conditions: for Hygroscopicity as compared with that of the EGFR inhibitor present in a free base form: 25° C./RH 80%; for Weight gain over 6 hours (%) / Weight gain over 24 hours (%) / Hygroscopicity: 25° C.±1° C., relative humidity 80%±2%; for Hygroscopicity: Pharmacopoeia class
# Description: Hygroscopicity comparison study was carried out for various pharmaceutically acceptable salts of EGFR inhibitor present in the form of crystal in Examples 1 to 3 and 5 to 6, the amorphous EGFR inhibitor phosphate salt in Example 4, and the EGFR inhibitor present in a free base form. Tests were conducted according to the method in the Pharmacopoeia of the People's Republic of China, 2015 edition, part 4, appendix 9103 (temperature: 25° C.±1° C., relative humidity: 80%±2%), and the results were as shown in Table 6.
# With regard to the description of hygroscopic properties and definition of hygroscopic weight gain, refer to the Pharmacopoeia of the People's Republic of China, 2015 edition, part 4, appendix 9103, experimental guideline of drug hygroscopicity, herein descried by way of example as follows.
# Deliquescence: absorb enough water to form a liquid.
# Very hygroscopic: hygroscopic weight gain […] 15%.
# Hygroscopic: hygroscopic weight gain less than 15% but not less than 2%.
# Non- or almost non-hygroscopic: hygroscopic weight gain less than 0.2%.
# [2] = Solubility study in water (saturated solutions, HPLC linear equation; Pharmacopoeia and BCS classification); conditions: for BCS level (Do): Do=(Mo/Vo)/Cs, Mo 80 mg, Vo about 250 ml, Do≤1 solubility high, Do>1 low; for Solubility in water, 1 h / Solubility in water, 4 h / Solubility in water, 24 h: saturated solution; for Solubility in water, 1 h: standing 1 hour; for Solubility in water, 4 h: standing 4 hours; for Solubility in water, 24 h: standing 24 hours
# Description: (§1) Various pharmaceutically acceptable salts of EGFR inhibitor present in form of crystal in Examples 1 to 3 and 5 to 6 were classified with reference to the relevant requirements of the Pharmacopoeia of the People's Republic of China and the Bio-pharmaceutics Classification System (BCS).
# (§2) (a) Relevant Requirements of Solubility in the Pharmacopoeia of the People's Republic of China, 2015 Edition, General Notices:
# (§3) (b) Relevant Requirements of Solubility in BCS: Do=(Mo/Vo)/Cs;
# (§4) wherein Do: dose index; Mo: highest single dose of the drug (with reference to the relevant dose of osimertinib, tentatively set to 80 mg); Vo: the volume of body fluid required for dissolving the drug (about 250 ml); Cs: saturated solubility of the drug;
# (§5) if Do≤1, solubility is high; and if Do>1, solubility is low.
# (§6) Using an EGFR inhibitor free base as a control, linear regression was carried out by plotting peak area versus concentration, and the corresponding linear equation was obtained in the range of 0.025 to 1.5 mg/ml: A=19775.0411c+2.4256, r=1.0000.
# Water was used as solvent. An appropriate amount of the EGFR inhibitor mesylate salt, p-toluenesulfonate salt, phosphate salt, hydrochloride salt and citrate salt prepared in Examples 1 to 3 and 5 to 6 was weighed, and prepared into saturated solutions. Samples were taken after standing for 1 hour, 4 hours, and 24 hours, respectively, and the concentration of each sample in saturation state was calculated according to the linear equation.
# [3] = Solubility study in artificial gastric fluid (saturated solutions, HPLC linear equation; Pharmacopoeia and BCS classification); conditions: for Pharmacopoeia of the People's Republic of China Solubility level / Solubility in artificial gastric fluid, 1 h / Solubility in artificial gastric fluid, 4 h / Solubility in artificial gastric fluid, 24 h / BCS level (Do): artificial gastric fluid; for Solubility in artificial gastric fluid compared with water: artificial gastric fluid versus water; for Solubility in artificial gastric fluid, 1 h / Solubility in artificial gastric fluid, 4 h / Solubility in artificial gastric fluid, 24 h: saturated solution; for Solubility in artificial gastric fluid, 1 h: standing 1 hour; for Solubility in artificial gastric fluid, 4 h: standing 4 hours; for Solubility in artificial gastric fluid, 24 h: standing 24 hours; for BCS level (Do): Do=(Mo/Vo)/Cs, Mo 80 mg, Vo about 250 ml, Do≤1 solubility high, Do>1 low; for Degradation in the solubility study: water and artificial gastric fluid, up to 24 hours
# Description: as §1, §2, §3, §4, §5, §6
# Artificial gastric fluid was used as solvent. An appropriate amount of the EGFR inhibitor mesylate salt (crystal form A), p-toluenesulfonate salt (crystal form B), phosphate salt (crystal form C), phosphate salt (amorphous), hydrochloride salt (crystal form C), and citrate salt (crystal form E) prepared in Examples 1 to 6 was weighed, and prepared into saturated solutions. Samples were taken after standing for 1 hour, 4 hours, and 24 hours, respectively, and the concentration of each sample in saturation state was calculated according to the linear equation.
# [4] = One month accelerated stability study at 40° C./75% RH (shape, purity, XRPD); conditions: for XRPD pattern (0 month versus 1 month) / Appearance, 1 month / Purity (%), 1 month: after 1 month at 40° C./75% RH; for Appearance, 0 month / Purity (%), 0 month: start of study (0 month)
# Description: The six pharmaceutically acceptable salts of EGFR inhibitor in Examples 1 to 6 were placed in a condition of 40° C./75% RH, and a one month accelerated stability study was carried out. Samples were taken at the end of 0 and 1 month respectively, and emphasis was placed upon the shape, purity and crystal form stability (XRPD pattern) of the samples.
# Stable refers to no occurrence of degradation and no detection of transformation to other crystal forms by analytical means such as chromatography and XRPD.
# [5] = Solubility study in water (saturated solutions, HPLC linear equation; Pharmacopoeia and BCS classification); conditions: in water and artificial gastric fluid
# [6] = listed as mesylate salt (crystal form A)
# [7] = listed as hydrochloride salt (crystal form D)
# [8] = listed as p-toluenesulfonate salt (crystal form B)
Compound,Weight gain over 6 hours (%) [1] [%],Weight gain over 24 hours (%) [1] [%],Hygroscopicity [1],Pharmacopoeia of the People's Republic of China Solubility level [2],BCS level (Do) [2],"Solubility in water, 1 h [2] [mg/mL]","Solubility in water, 4 h [2] [mg/mL]","Solubility in water, 24 h [2] [mg/mL]",Pharmacopoeia of the People's Republic of China Solubility level [3],Solubility in artificial gastric fluid compared with water [3],"Solubility in artificial gastric fluid, 1 h [3] [mg/mL]","Solubility in artificial gastric fluid, 4 h [3] [mg/mL]","Solubility in artificial gastric fluid, 24 h [3] [mg/mL]",BCS level (Do) [3],Degradation in the solubility study [3],XRPD pattern (0 month versus 1 month) [4],Solubility with reference to Pharmacopoeia solubility classification [5],other results
C=CC(=O)Nc1cc(Nc2nccc(-c3cn(C)c4cccnc34)n2)c(OC)cc1N(C)CCN(C)C [mesylate salt],6.86,10.64,hygroscopic,freely soluble,0.0013 < 1,223.02,224.00,255.75,freely soluble,higher solubility in artificial gastric fluid than in water,248.77,370.37,379.12,0.0008 < 1,no significant degradation,consistent,high,"Hygroscopicity as compared with that of the EGFR inhibitor present in a free base form ([1]; listed as mesylate salt crystal form A): higher hygroscopicity; Appearance, 1 month [4, 6]: light brown solid; Purity (%), 1 month [4, 6]: 99.2%; Appearance, 0 month [4, 6]: light brown solid; Purity (%), 0 month [4, 6]: 99.0%"
C=CC(=O)Nc1cc(Nc2nccc(-c3cn(C)c4cccnc34)n2)c(OC)cc1N(C)CCN(C)C [phosphate salt (crystal form C)],9.15,11.98,hygroscopic,freely soluble,0.0023 < 1,107.15,133.32,137.13,freely soluble,higher solubility in artificial gastric fluid than in water,156.70,159.14,147.08,0.0022 < 1,no significant degradation,consistent,high,"Hygroscopicity as compared with that of the EGFR inhibitor present in a free base form [1]: higher hygroscopicity; Appearance, 1 month [4]: tan solid; Purity (%), 1 month [4]: 98.5%; Appearance, 0 month [4]: tan solid; Purity (%), 0 month [4]: 98.5%"
C=CC(=O)Nc1cc(Nc2nccc(-c3cn(C)c4cccnc34)n2)c(OC)cc1N(C)CCN(C)C [free base],1.7,2.2,hygroscopic,,606.30 > 1,<0.025,<0.025,<0.025,,higher solubility in artificial gastric fluid than in water,0.84,0.86,0.71,0.4515 < 1,no significant degradation,,,
C=CC(=O)Nc1cc(Nc2nccc(-c3cn(C)c4cccnc34)n2)c(OC)cc1N(C)CCN(C)C [hydrochloride salt],0.72,1.29,slightly hygroscopic,sparingly soluble,0.0302 < 1,13.43,11.09,10.59,soluble,higher solubility in artificial gastric fluid than in water,83.79,79.18,70.03,0.0046 < 1,no significant degradation,consistent,,"Hygroscopicity as compared with that of the EGFR inhibitor present in a free base form ([1]; listed as hydrochloride salt crystal form D): lower hygroscopicity; Appearance, 1 month [4, 7]: tan solid; Purity (%), 1 month [4, 7]: 99.3%; Appearance, 0 month [4, 7]: tan solid; Purity (%), 0 month [4, 7]: 99.2%"
C=CC(=O)Nc1cc(Nc2nccc(-c3cn(C)c4cccnc34)n2)c(OC)cc1N(C)CCN(C)C [p-toluenesulfonate salt],0.04,0.04,,slightly soluble,0.2057 < 1,1.82,1.78,1.56,soluble,higher solubility in artificial gastric fluid than in water,46.21,46.75,47.03,0.0068 < 1,no significant degradation,consistent,,"Hygroscopicity as compared with that of the EGFR inhibitor present in a free base form ([1]; listed as p-toluenesulfonate salt crystal form B): lower hygroscopicity; Appearance, 1 month [4, 8]: light tan solid; Purity (%), 1 month [4, 8]: 98.7%; Appearance, 0 month [4, 8]: light tan solid; Purity (%), 0 month [4, 8]: 98.7%"
